{
  "source": "patent US5386030A",
  "about": "“Antiviral (phosphonomethoxy)methoxy purine/pyrimidine derivatives” (Institute of Organic Chemistry and Biochemistry of the …, priority 1993, dated 1995)",
  "key": {"herpes simples virus-2": {"tested_on": "herpes simples virus-2", "test": "survival of mice inoculated with herpes simplex virus-2", "format": "in vivo", "protocol": "A preferred example of one of these compounds, known as (S)-HPMPA (Formula V) was disclosed by DeClercq, et al., in Nature, 323: 464-467 (1986) and earlier by Holy, et al, Nucleic Acids Research, Symposium Series No. 14, pp. 277-278 (1984). Phosphonate compounds which are HPMPA analogs are described in South African Patent 1987/8607. […] In a 21 day protocol 30% of a group of animals treated i.p. with 50 mg/kg/day of (S)-HPMPA survived. [drawing 5]"}, "HSV-1": {"tested_on": "HSV-1", "test": "plaque reduction assay, HSV-1 (vero cells)", "format": "cell-based, herpes simplex virus I", "details": "for IC50: 48 h, read-out: ID50 HSV-1", "protocol": "(§1) Herpes simplex virus (HSV) strains were grown and titered at 37° C. in vero cells (African Green Monkey Kidney cells) and used for virus work before the tenth passage.\n(§2) Cells were grown and maintained in Earle's Minimum Essential Medium (EMEM), Gibco Laboratories, supplemented with 0.75% sodium bicarbonate, 2 mM 1-glutamine, Pen-strep. and 5-10% fetal calf serum.\n(§3) The titer of HSV strains is determined by a plaque titration method (Roizman and Roane, Virology, 115: 75-79, 1961). Tissue culture 24-well petri dishes are seeded with cells and used for assays when approximately 75% monolayer. Volumes (0.1 ml) of logarithmic dilutions of the virus strain are inoculated onto each of triplicate wells, and absorbed for one hour with intermittent shaking. The inoculum thereafter is removed, and 1 ml of 5-10% EMEM containing 0.3% human immune serum globulin is added. After a 48 hour incubation period at 37° C. in a 5% CO2 atmosphere, the overlay medium is removed and the cell sheets stained with Giemsa stain. The number of plaques is counted, the triplicate is averaged, and the number of plaque-forming units per ml is calculated.\nThe compounds are tested for activity against the herpes simplex stains using a stock solution of each compound freshly prepared. Appropriate dilution of each compound are made in 10% EMEM before usage. The antiviral efficacy of each compound is determined using the plaque reduction assay described above. Briefly, tissue culture 24-well plates, with approximately 50 plaque forming units of HSV per 0.1 ml, and the virus absorbed for 1 hour, with intermittent shaking. After removal of the inoculum, 1 ml of 10% EMEM containing two-fold dilutions of the appropriate drug are added in triplicates. Triplicate wells/plate receives no drug and are used as a virus control. After a 48-hour incubation period, at 37° C. in a 5% CO2 atmosphere, the overlay medium is removed, the cells are stained as described above, and plaques are counted. The counts of triplicate wells are averaged, and the number of plaques in the presence of each drug dilution are calculated. […]"}, "HSV-2": {"tested_on": "HSV-2", "test": "plaque reduction assay, HSV-2 (vero cells)", "format": "cell-based, herpes simplex virus II", "details": "for IC50: 48 h", "protocol": "as §1, §2, §3\n(§4) The compounds are tested for activity against the herpes simplex stains using a stock solution of each compound freshly prepared. Appropriate dilution of each compound are made in 10% EMEM before usage. The antiviral efficacy of each compound is determined using the plaque reduction assay described above. Briefly, tissue culture 24-well plates, with approximately 50 plaque forming units of HSV per 0.1 ml, and the virus absorbed for 1 hour, with intermittent shaking. After removal of the inoculum, 1 ml of 10% EMEM containing two-fold dilutions of the appropriate drug are added in triplicates. Triplicate wells/plate receives no drug and are used as a virus control. After a 48-hour incubation period, at 37° C. in a 5% CO2 atmosphere, the overlay medium is removed, the cells are stained as described above, and plaques are counted. The counts of triplicate wells are averaged, and the number of plaques in the presence of each drug dilution are calculated.\n(§5) The antiviral potency of the drug is determined by ID50, the drug concentration necessary to reduce the number of plaques by 50% of those in the virus control cultures."}, "HCMV": {"tested_on": "HCMV", "test": "plaque reduction assay, HCMV strain AD169 (MRC-5 cells)", "format": "cell-based, Human cytomegalovirus (strain AD169)", "details": "for IC50: read-out: ID50 HCMV", "protocol": "as §4\nHuman cytomegalovirus (HCMV) (strain AD169) was grown and titered at 37° C. in human embryonic lung (diploid) cells, MRC-5. The activity of compounds against HCMV was determined by using the procedure for the plaque reduction assay described above.\nas §5"}, "MuLV": {"tested_on": "MuLV", "test": "UV-XC plaque assay, MuLV (SC-1 cells)", "format": "cell-based, murine leukemia virus", "details": "for IC50: Murine leukemia virus", "protocol": "The compounds were evaluated for antiviral activity against murine leukemia virus (MuLV) strains using the UV-XC plaque assay (Rowe, et al., Virology, 42: 1136, 1970).\nThe MuLV strains were grown in feral mouse cells (SC-1) and used for antiviral tests using the UV-XC plaque assay. Briefly, SC-1 cells are grown as monolayers in 4-well tissue culture plates and inoculated with approximately 50-100 plaque forming units of MuLV in 0.5 ml of 5% EMEM containing 20 μg/ml DEAE/Dextran. After 1 hour adsorption, the inoculum is removed and 5 ml of 5% EMEM containing three-fold dilutions of the appropriate drug are added. Five days later, the cultures are UV-irradiated with an ultraviolet lamp and rat XC sarcoma cells are added to the cultures. Three-four days after UV-irradiation, the cell cultures are stained with Giemsa stain and the plaques are enumerated. Antiviral activity is expressed in terms of the reduction in the mean number of UV-XC plaques counted in the drug treated, virus-infected cultures compared with mean number of plaques counted in untreated, virus-infected control cultures.\nas §5"}, "[1]": {"details": "Human alphaherpesvirus 2, Table 2, drug concentration reducing plaques by 50%, vero cells, read-out: ID50 HSV-2"}, "[2]": {"details": "SC1, Table 2, UV-XC plaque assay, SC-1 cells, read-out: ID50 MULV"}, "[3]": {"details": "Human betaherpesvirus 5, MRC5, 48 h, Table 2, strain AD169, MRC-5 cells"}},
  "note": "Where a name gives a salt, the structure may show the parent alone. Read-outs that look alike come from different tables or passages of the source.",
  "data": [
    {"molecule": "Nc1ncnc2c1ncn2C[C@@H](CO)OCP(=O)(O)O", "note": "[(S)-HPMPA]", "values": [
      {"measurement": "animals survived", "setting": "herpes simples virus-2; HSV-2, i.p., 50 mg/kg/day, 21 day protocol", "value": 30, "unit": "%"},
      {"measurement": "activity in mice inoculated with herpes simplex virus-2 (in words)", "setting": "herpes simples virus-2; HSV-2, in applicant's hands", "value": "only slightly active"}
    ]},
    {"molecule": "Nc1nc2c(ncn2COCCO)c(=O)[nH]1", "note": "[ACV, acyclovir, reference compound]", "values": [
      {"measurement": "IC50", "setting": "HSV-1; Human alphaherpesvirus 1, Table 1, drug concentration reducing plaques by 50%, vero cells", "value": 0.6, "unit": "µg/mL"},
      {"measurement": "IC50", "setting": "HSV-2; Human alphaherpesvirus 2, Table 1, drug concentration reducing plaques by 50%, vero cells, read-out: ID50 HSV2", "value": 0.7, "unit": "µg/mL"},
      {"measurement": "IC50", "setting": "HSV-2; [1]", "value": 0.35, "unit": "µg/mL"},
      {"measurement": "IC50", "setting": "HCMV; Human betaherpesvirus 5, MRC5, 48 h, Table 1, strain AD169, MRC-5 cells", "value": 40, "unit": "µg/mL"},
      {"measurement": "IC50", "setting": "MuLV; [2]", "value": "> 100", "unit": "µg/mL"}
    ]},
    {"molecule": "N.Nc1ncnc2c1ncn2OCOCP(=O)(O)O", "note": "[Compound 4, 9-[(Phosphonomethoxy)methoxy]adenine ammonium salt]", "values": [
      {"measurement": "HSV-2 activity (in words)", "setting": "HSV-2", "value": "little activity"},
      {"measurement": "IC50", "setting": "HSV-2; Human alphaherpesvirus 2, Vero, read-out: ID50 against HSV-2", "value": "> 100", "unit": "µg/mL"},
      {"measurement": "activity against MuLV (in words)", "setting": "MuLV", "value": "good activity"},
      {"measurement": "IC50", "setting": "MuLV; SC-1, read-out: ID50 against MuLV", "value": 1.5, "unit": "µg/mL"}
    ]},
    {"molecule": "N.Nc1nc2c(ncn2OCOCP(=O)(O)O)c(=O)[nH]1", "note": "[Compound 14, 9-[(Phosphonomethoxy)methoxy]guanine ammonium salt]", "values": [
      {"measurement": "IC50", "setting": "HSV-1; Human alphaherpesvirus 1, Vero", "value": 2.2, "unit": "µg/mL"},
      {"measurement": "HSV-1 activity (in words)", "setting": "HSV-1; compared with ACV", "value": "comparable to acyclovir (ACV)"},
      {"measurement": "HSV-2 activity (in words)", "setting": "HSV-2", "value": "comparable to acyclovir (ACV)"},
      {"measurement": "IC50", "setting": "HSV-2; Human alphaherpesvirus 2, Vero, read-out: ID50 HSV2", "value": 1.3, "unit": "µg/mL"},
      {"measurement": "IC50", "setting": "HCMV; Human betaherpesvirus 5, AD169, MRC5, 48 h", "value": 0.2, "unit": "µg/mL"}
    ]},
    {"molecule": "Nc1ncnc2c1ncn2OC(CO)OCP(=O)(O)O", "note": "(centres unmarked) [Compound 21, ammonium salt]", "values": [
      {"measurement": "IC50", "setting": "HSV-2; [1]", "value": 2.6, "unit": "µg/mL"},
      {"measurement": "IC50", "setting": "HCMV; [3]", "value": 1, "unit": "µg/mL"},
      {"measurement": "HCMV activity (in words)", "setting": "HCMV; compared with DHPG", "value": "comparable to DHPG"},
      {"measurement": "IC50", "setting": "MuLV; [2]", "value": 1.5, "unit": "µg/mL"}
    ]},
    {"molecule": "Nc1nc2c(ncn2COC(CO)CO)c(=O)[nH]1", "note": "[DHPG, reference compound]", "values": [
      {"measurement": "IC50", "setting": "HSV-2; [1]", "value": 0.2, "unit": "µg/mL"},
      {"measurement": "IC50", "setting": "HCMV; [3]", "value": 0.4, "unit": "µg/mL"},
      {"measurement": "IC50", "setting": "MuLV; [2]", "value": "> 100", "unit": "µg/mL"}
    ]}
  ]
}
